The data set is described as follows: collision cross section in nitrogen (drift tube, single-field); higher = larger gas-phase ion size.
[1] abbreviates: ion type: [M+Na], ion source: ESI, ion mode: Positive.
[2] abbreviates: ion type: [M-H], ion source: ESI, ion mode: Negative.
Where [3] appears, read: ion type: [M+H], ion source: APCI, ion mode: Positive.
The mark [4] stands for this setting: ion type: [M+H], ion source: ESI, ion mode: Positive.
The mark [5] stands for this setting: ion type: [M+], ion source: APCI, ion mode: Positive.
Setting [6] is: ion source: APCI, ion mode: Positive, ion type: [M]+ (permanent cation).
[7] abbreviates: ion source: ESI, ion mode: Positive, ion type: [M]+ (permanent cation).

Structures can show the parent of a compound that is named as a salt.

This is an account of results in the supplement of paper PMC12317010.
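Further: chemical standards at 10 µM analysed by drift tube IMS-QTOF MS in about 3.95 torr nitrogen, mean of duplicate injections differing ≤1%, mass error below 10 ppm.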

Turning to `CCNP(=S)(OC)O/C(C)=C/C(=O)OC(C)C` (configuration not stated) [Propetamphos], the “collision cross section in nitrogen” value turned out to be 170.5 Å² under setting [1] and 168.1 Å² under setting [2].
Regarding `CCCC1COC(Cn2cncn2)(c2ccc(Cl)cc2Cl)O1` (configuration not stated) [Propiconazole], the “collision cross section in nitrogen” value was found to be 180.9 Å² under setting [3] and 179.8 Å² under setting [4].
`CC(C)c1cccc(C(C)C)c1O` [Propofol]: the “collision cross section in nitrogen” value under setting [2] came to 143.5 Å².
`CCCOc1nn(C(=O)NS(=O)(=O)c2ccccc2C(=O)OC)c(=O)n1C` [Propoxycarbazone-sodium]: the “collision cross section in nitrogen” value under setting [2] was found to be 193.2 Å².
Consider `CC(C)NCC(O)COc1cccc2ccccc12` (configuration not stated) [Propranolol hydrochloride], for which the “collision cross section in nitrogen” value runs as follows: under setting [3], 162.5 Å²; under setting [4], 162.8 Å²; under setting [1], 167.7 Å².
With `CCCCCCCCC(=O)OCC(C)OC(=O)CCCCCCCC` (configuration not stated) [Propylene glycol dipelargonate], under setting [1], the “collision cross section in nitrogen” value is listed as 207.9 Å².
`CCCOC(=O)c1ccc(O)cc1` [Propylparaben]: the “collision cross section in nitrogen” value under setting [2] is listed as 142.9 Å².
Take `C#CC(C)(C)NC(=O)c1cc(Cl)cc(Cl)c1` [Propyzamide]: the “collision cross section in nitrogen” value by setting is: under setting [3], 157.9 Å²; under setting [2], 157.3 Å².
With `OC(Cc1ccccc1Cl)(Cn1nc[nH]c1=S)C1(Cl)CC1` (configuration not stated) [Prothioconazole], the “collision cross section in nitrogen” value runs as follows: under setting [1], 174.4 Å²; under setting [2], 171 Å².
Consider `O=C1c2ccccc2C(=O)c2c(O)c(O)cc(O)c21` [Purpurin], for which, under setting [2], the “collision cross section in nitrogen” value amounted to 149 Å².
As for `CC1=NNC(=O)N(/N=C/c2cccnc2)C1` [Pymetrozine], the “collision cross section in nitrogen” value reads like this: under setting [3], 154.8 Å²; under setting [4], 154.2 Å²; under setting [1], 155.8 Å².
Take `COC(=O)N(OC)c1ccccc1COc1ccn(-c2ccc(Cl)cc2)n1` [Pyraclostrobin]: the “collision cross section in nitrogen” value under setting [3] turned out to be 184.5 Å², the “collision cross section in nitrogen” value under setting [4] is 183.8 Å² and the “collision cross section in nitrogen” value under setting [1] worked out at 195.5 Å².
On to `CCOC(=O)COc1cc(-c2nn(C)c(OC(F)F)c2Cl)c(F)cc1Cl` [Pyraflufen-ethyl], for which the “collision cross section in nitrogen” value worked out at 188 Å² under setting [4] and 198.4 Å² under setting [1].
On to `CCOC(=O)c1cn2nc(OP(=S)(OCC)OCC)cc2nc1C` [Pyrazophos], for which the “collision cross section in nitrogen” value is listed as 192.5 Å² under setting [3], 191.7 Å² under setting [4] and 195.9 Å² under setting [1].
Consider `c1cc2ccc3cccc4ccc(c1)c2c34` [Pyrene], for which, under setting [5], the “collision cross section in nitrogen” value was found to be 136.3 Å².
For `CC(C)(C)c1ccc(CSc2cnn(C(C)(C)C)c(=O)c2Cl)cc1` [Pyridaben], the “collision cross section in nitrogen” value under setting [1] is 208.8 Å².
For `FC(F)(F)c1ccc(OCCCOc2c(Cl)cc(OCC=C(Cl)Cl)cc2Cl)nc1` [Pyridalyl], the “collision cross section in nitrogen” value is on record as 203 Å² under setting [3], 203.8 Å² under setting [4] and 215 Å² under setting [1].
As for `Cc1ncc(CO)c(CO)c1O` [Pyridoxine hydrochloride], the “collision cross section in nitrogen” value is, setting by setting: under setting [3], 133.7 Å²; under setting [1], 144 Å²; under setting [2], 133.3 Å².
For the compound `Cc1ncc(CO)c(CO)c1O` [Pyridoxine], the “collision cross section in nitrogen” value is listed as 133.7 Å² under setting [3], 134.6 Å² under setting [4] and 133.2 Å² under setting [2].
Take `CCc1nc(N)nc(N)c1-c1ccc(Cl)cc1` [Pyrimethamine]: the “collision cross section in nitrogen” value runs as follows: under setting [3], 158.8 Å²; under setting [4], 159.4 Å².
As for `Cc1cc(C)nc(Nc2ccccc2)n1` [Pyrimethanil], the “collision cross section in nitrogen” value reads like this: under setting [3], 143.4 Å²; under setting [4], 143.8 Å².
In the case of `CC(COc1ccc(Oc2ccccc2)cc1)Oc1ccccn1` (configuration not stated) [Pyriproxyfen], the “collision cross section in nitrogen” value by setting is: under setting [3], 184.3 Å²; under setting [4], 184.3 Å²; under setting [1], 185.4 Å².
`COc1cc(OC)nc(Sc2cccc(Cl)c2C(=O)O)n1` [Pyrithiobac sodium]: the “collision cross section in nitrogen” value runs as follows: under setting [3], 166.7 Å²; under setting [4], 166.6 Å²; under setting [1], 173.5 Å².
As to `COc1cc(OC)nc(Sc2cccc(Cl)c2C(=O)O)n1` [Pyrithiobac], the “collision cross section in nitrogen” value under setting [3] was 167.1 Å², the “collision cross section in nitrogen” value under setting [4] turned out to be 166.7 Å² and the “collision cross section in nitrogen” value under setting [1] amounted to 173.3 Å².
With `CCCCCCCCCCCCCCCC[N+](C)(C)CC` [Quaternium 17], the “collision cross section in nitrogen” value under setting [6] was 196.1 Å² and the “collision cross section in nitrogen” value under setting [7] worked out at 197.2 Å².
Regarding `O=c1c(O)c(-c2ccc(O)c(O)c2)oc2cc(O)cc(O)c12` [Quercetin], under setting [2], the “collision cross section in nitrogen” value is given as 164.7 Å².
For the compound `OCCOCCN1CCN(C2=Nc3ccccc3Sc3ccccc32)CC1` [Quetiapine fumarate], the “collision cross section in nitrogen” value was 192.1 Å² under setting [3], 192.3 Å² under setting [4], 188.6 Å² under setting [1] and 183.5 Å² under setting [2].
As to `O=C1c2ccc(O)c(O)c2C(=O)c2c(O)ccc(O)c21` [Quinalizarin], under setting [2], the “collision cross section in nitrogen” value came out at 150.5 Å².
Turning to `O=C(O)c1c(Cl)ccc2cc(Cl)cnc12` [Quinclorac], the “collision cross section in nitrogen” value under setting [4] is listed as 142.6 Å².
With `Cc1cnc2c(C(=O)O)c(Cl)ccc2c1` [Quinmerac], the “collision cross section in nitrogen” value by setting is: under setting [3], 139.6 Å²; under setting [4], 140.7 Å²; under setting [1], 158 Å².
On to `c1ccc2ncccc2c1` [Quinoline], for which the “collision cross section in nitrogen” value under setting [3] is recorded as 120.8 Å².
`Fc1ccc(Oc2ccnc3cc(Cl)cc(Cl)c23)cc1` [Quinoxyfen]: the “collision cross section in nitrogen” value reads like this: under setting [3], 165.8 Å²; under setting [4], 165.5 Å².
Turning to `COCCCOc1ccnc(CS(=O)c2nc3ccccc3[nH]2)c1C` (configuration not stated) [Rabeprazole sodium], the “collision cross section in nitrogen” value turned out to be 189.4 Å² under setting [3], 179.5 Å² under setting [1] and 187.8 Å² under setting [5].
In the case of `O=C(c1ccc(OCCN2CCCCC2)cc1)c1c(-c2ccc(O)cc2)sc2cc(O)ccc12` [Raloxifene hydrochloride], the “collision cross section in nitrogen” value came to 215.7 Å² under setting [3], 215.2 Å² under setting [4], 220.7 Å² under setting [1] and 213.4 Å² under setting [2].
`CNC(=C[N+](=O)[O-])NCCSCc1ccc(CN(C)C)o1` [Ranitidine]: the “collision cross section in nitrogen” value reads like this: under setting [3], 169.2 Å²; under setting [4], 169 Å²; under setting [1], 176.2 Å²; under setting [2], 179.5 Å².
With `COC(=O)[C@H]1[C@H]2C[C@@H]3c4[nH]c5cc(OC)ccc5c4CCN3C[C@H]2C[C@@H](OC(=O)c2cc(OC)c(OC)c(OC)c2)[C@@H]1OC` [Reserpine], the “collision cross section in nitrogen” value under setting [5] came out at 242.8 Å².
As to `CC(C)=CC1C(C(=O)OCc2coc(Cc3ccccc3)c2)C1(C)C` (configuration not stated) [Resmethrin], the “collision cross section in nitrogen” value under setting [1] worked out at 177.8 Å².
With `O=C(Oc1cccc(O)c1)c1ccccc1` [Resorcinol monobenzoate], the “collision cross section in nitrogen” value under setting [2] is recorded as 152.9 Å².
As to `Oc1cccc(O)c1` [Resorcinol], the “collision cross section in nitrogen” value under setting [2] is 118.9 Å².
In the case of `Oc1ccc(/C=C/c2cc(O)cc(O)c2)cc1` [Resveratrol], the “collision cross section in nitrogen” value is, setting by setting: under setting [5], 155.1 Å²; under setting [2], 159.3 Å².
Consider `CCNc1cc2[o+]c3cc(NCC)c(C)cc3c(-c3ccccc3C(=O)OCC)c2cc1C` [Rhodamine 6G], for which the “collision cross section in nitrogen” value is 218.3 Å² under setting [6] and 218.9 Å² under setting [7].
Consider `CCN(CC)c1ccc2c(-c3ccccc3C(=O)O)c3ccc(N(CC)CC)cc3[o+]c2c1` [Rhodamine B], for which the “collision cross section in nitrogen” value under setting [7] is recorded as 218.1 Å².
Regarding `COc1ccn(C)c(=O)c1C#N` [Ricinine], the “collision cross section in nitrogen” value under setting [3] is reported as 132.2 Å², the “collision cross section in nitrogen” value under setting [4] is on record as 132.4 Å² and the “collision cross section in nitrogen” value under setting [1] is listed as 143 Å².
As to `CO[C@H]1/C=C/O[C@@]2(C)Oc3c(C)c(O)c4c(O)c(c(/C=N/N5CCN(C)CC5)c(O)c4c3C2=O)NC(=O)/C(C)=C\C=C\[C@H](C)[C@H](O)[C@@H](C)[C@@H](O)[C@@H](C)[C@H](OC(C)=O)[C@@H]1C` [Rifampicin], the “collision cross section in nitrogen” value was 282.3 Å² under setting [4] and 279 Å² under setting [1].
As to `O=C(CCCCCCCCc1cccnc1)N1CCC(C=C(c2ccccc2)c2ccccc2)CC1` [Ro 23-7637], the “collision cross section in nitrogen” value under setting [3] came to 239.1 Å², the “collision cross section in nitrogen” value under setting [4] is reported as 238 Å² and the “collision cross section in nitrogen” value under setting [1] amounted to 242.7 Å².
For the compound `COc1cc(C(=O)NC2CCN(C)CC2)ccc1Nc1ncc2c(n1)N(C1CCCC1)CC(F)(F)C(=O)N2C` [Ro 3280], the “collision cross section in nitrogen” value reads like this: under setting [3], 250.9 Å²; under setting [4], 250.7 Å²; under setting [1], 262.3 Å²; under setting [2], 236.7 Å².
On to `CS(=O)(=O)c1ccc(C2=C(c3ccccc3)C(=O)OC2)cc1` [Rofecoxib], for which the “collision cross section in nitrogen” value under setting [2] is 174.4 Å².
Take `Cn1c([N+](=O)[O-])cnc1COC(N)=O` [Ronidazole]: the “collision cross section in nitrogen” value under setting [1] was 143.1 Å².
Take `CN(CCOc1ccc(CC2SC(=O)NC2=O)cc1)c1ccccn1` (configuration not stated) [Rosiglitazone maleate]: the “collision cross section in nitrogen” value was 172.4 Å² under setting [3], 172.5 Å² under setting [4], 182.7 Å² under setting [1] and 176.3 Å² under setting [2].
On to `C=C(C)[C@H]1Cc2c(ccc3c2O[C@@H]2COc4cc(OC)c(OC)cc4[C@@H]2C3=O)O1` [Rotenone], for which the “collision cross section in nitrogen” value under setting [4] is on record as 194.8 Å², the “collision cross section in nitrogen” value under setting [1] came to 207.3 Å² and the “collision cross section in nitrogen” value under setting [2] came out at 199 Å².
